The values that follow come from patent publication US11717480B2, “Extracellular vesicles and methods and uses thereof” (The Regents of the University of California, priority 2016, dated 2023).

One series has as its system EL4 cells. In words: In vitro MTT viability assay of EL4 cells. The class given is cell-based, mouse. The settings on record: highest concentrations tested, n=3, one-way ANOVA and Tukey HSD. The procedure: Turning now to FIG. 20. FIG. 20 describes the effect of therapeutic agents delivered by EVs of various embodiments as compared to other forms of drug delivery. […] (See, Immordino, et al., Int. J. Nanomedicine 1, 297-315 (2016), the disclosures being incorporated herein by reference.)
EL4 cells were treated over 24 or 48 hours with DOX, DOXIL, DOX-EVs, or unloaded EVs. […] It is important to note that DOX-loaded EVs would not be expected to outperform free DOX in vitro study since their primary benefits (improved biocompatibility and extended release) are critical factors in an in vivo delivery setting.
In vitro viability studies. EL4 cells were plated at 20,000 cells/well in 100 μL of DMEM with 10% FBS. Cells were incubated for 24 hours or 48 hours with the concentrations of DOX, DOXIL or DOX-EVs described in FIG. 20. An MTT assay was performed and cells were incubated with 1 mg/mL of MTT for 1 hour. The crystals were dissolved in 100 μL of DMSO and the absorbance of each well was characterized at 560 nm.
Turning now to FIG. 20. FIG. 20 describes the effect of therapeutic agents delivered by EVs of as compared to other forms of drug delivery. […] (See, Immordino, et al., Int. J. Nanomedicine 1, 297-315 (2016), the disclosures being incorporated herein by reference.)
EL4 cells were treated over 24 or 48 hours with DOX, DOXIL, DOX-EVs, or unloaded EVs. […]

The nature of series [1]: Biodistribution: drug content of organs 24 hours after treatment. In kind it is in vivo, C57BL/6 mice. The settings on record: lung, liver, heart, spleen, tumor. The procedure:
Turning to FIG. 21C, serum was collected from C57BL/6 mice treated with DOX, DOXIL or DOX-EVs and analyzed for drug content. Concentration of DOX in the serum (n=3) was measured over 12 hours by a series of blood collections and fluorescence quantifications. […] Twenty-four hours after treatment, the mice were sacrificed and their organs were assessed for drug content.
For pharmacokinetics and biodistribution experiments, tumors were established and mice were treated as described above. Tail vein blood collection was completed at the time points indicated and suspended in acidified alcohol. The blood was analyzed for DOX concentration by fluorescence spectroscopy (ex. 485 nm, em. 595 nm). 24 hours post treatment, the mice were sacrificed and the organs were extracted. The organs were cryopulverized and resuspended in acidified alcohol for fluorescence spectroscopy (ex. 485 nm, em. 595 nm) analysis.

In the case of `COc1cccc2c1C(=O)c1c(O)c3c(c(O)c1C2=O)C[C@@](O)(C(=O)CO)C[C@@H]3O[C@H]1C[C@H](N)[C@H](O)[C@H](C)O1` [DOX, doxorubicin], in the series with EL4 cells, the “Viability of EL4 cells versus controls” value is on record as “statistically significant (p<0.01) from the controls”. For the same molecule, the “Accumulation of drug in organs” value in series [1] is “tends to accumulate in the lung”.
